Reference: patent US8586751B2, “Nicotinamide compounds useful as kinase modulators” (Bristol-Myers Squibb Company, priority 2009, dated 2013)

Legend:
[1] = tested on: Ramos B cells with beta-lactamase reporter gene under control of an NFAT response element; experiment: NFAT-bla RA1 Reporter Assay (Ramos-NFAT); assay type: cell-based, human; conditions: Homo sapiens, Ramos, read-out: IMM Ramos-NFAT (IC50)
Description: NFAT-bla RA1 Reporter Assay
Ramos B cells containing a stable integration of a beta-lactamase reporter gene under the control of an NFAT response element (NFAT-bla RA1, Invitrogen, K1434) at a density of 100×10^3 cells/well were incubated with test compounds at 37° C. for 30 min prior to stimulation with F(ab′)2 anti-human IgM (Jackson ImmunoResearch, 109-006-129) at 2.5 μg/ml for 4.5 hrs at 37° C. After stimulation, LiveBLAzer-FRET B/G substrate (CCF2/AM, or CCF4/AM, Invitrogen) was added to each well and incubated for 90 min at room temperature in the dark. Assay plates were read on an LJL Analyst, with raw emission values subtracted from a media-only blank containing substrate in assay media (no cells). The ratios of 460 nm/530 nm emission (405 nm excitation) were used to calculate the amount of stimulation.

human recombinant Btk = target: T1, human recombinant Btk (Homo sapiens, UniProt Q06187); experiment: Human Recombinant Btk Enzyme Assay (LLE_BTK); assay type: biochemical
T1 construct: purchased Invitrogen Corporation
T1 sequence (Q06187 whole entry): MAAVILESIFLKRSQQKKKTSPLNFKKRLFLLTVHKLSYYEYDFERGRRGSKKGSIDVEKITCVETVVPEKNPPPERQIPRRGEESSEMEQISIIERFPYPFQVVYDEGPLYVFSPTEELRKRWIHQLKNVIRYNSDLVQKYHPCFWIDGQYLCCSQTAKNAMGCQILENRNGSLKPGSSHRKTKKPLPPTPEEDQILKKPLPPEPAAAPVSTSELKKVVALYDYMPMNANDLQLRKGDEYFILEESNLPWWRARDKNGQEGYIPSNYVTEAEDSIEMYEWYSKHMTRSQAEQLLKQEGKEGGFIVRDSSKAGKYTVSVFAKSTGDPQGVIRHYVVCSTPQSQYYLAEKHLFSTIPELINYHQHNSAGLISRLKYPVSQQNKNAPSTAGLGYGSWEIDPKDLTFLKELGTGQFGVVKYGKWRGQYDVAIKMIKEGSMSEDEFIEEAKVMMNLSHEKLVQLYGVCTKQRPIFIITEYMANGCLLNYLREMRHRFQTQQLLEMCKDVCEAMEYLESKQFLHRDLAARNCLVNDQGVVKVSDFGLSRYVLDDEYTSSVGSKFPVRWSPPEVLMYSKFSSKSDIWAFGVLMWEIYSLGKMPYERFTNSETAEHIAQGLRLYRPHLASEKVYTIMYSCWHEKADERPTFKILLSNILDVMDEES
Description: Human Recombinant Btk Enzyme Assay
To V-bottom 384-well plates were added test compounds, human recombinant Btk (1 nM, Invitrogen Corporation), fluoresceinated peptide (1.5 μM), ATP (20 μM), and assay buffer (20 mM HEPES pH 7.4, 10 mM MgCl2, 0.015% Brij35 and 4 mM DTT in 1.6% DMSO), with a final volume of 30 μL. After incubating at room temperature for 60 min, the reaction was terminated by adding 45 μl of 35 mM EDTA to each sample. The reaction mixture was analyzed on the Caliper LABCHIP® 3000 (Caliper, Hopkinton, Mass.) by electrophoretic separation of the fluorescent substrate and phosphorylated product. Inhibition data were calculated by comparison to no enzyme control reactions for 100% inhibition and no inhibitor controls for 0% inhibition. Dose response curves were generated to determine the concentration required inhibiting 50% of kinase activity (IC50). Compounds were dissolved at 10 mM in dimethylsulfoxide (DMSO) and evaluated at eleven concentrations.
Using this assay, the following IC50 values derived by non-linear regression analysis were determined and compared to those values of certain compounds in U.S. Publication No. 2007/078136 and U.S. Publication No. 2008/045536.

Row | Structure (SMILES) | IC50 [1] [nM] | IC50 (human recombinant Btk) [nM]
1 | NC(=O)c1cc(F)c(N2CCC[C@@H](NC(=O)Nc3nccs3)C2)nc1Nc1ccc(CCO)cc1 [Example 545] | 160 | 2
2 | CN1CCCC(c2ccc(Nc3nc(N4CCC[C@@H](NC(=O)Nc5ncc(F)s5)C4)c(F)cc3C(N)=O)cc2)C1 (stereo partly drawn) [Example 564] | 100 | 1
3 | NC(=O)c1cc(F)c(N2CCOCC2)nc1Nc1cccc(CS(=O)(=O)N2CCCC2)c1 [Example 533] |  | 22000
4 | NC(=O)c1ccc(N2CCC[C@@H](NC(=O)c3cccc(-c4nc5ccccc5[nH]4)c3)C2)nc1Nc1ccc(C(=O)N2CCOCC2)cc1 [Example 263] | 5700 | 0.9
5 | CN1CCN(c2ccc(Nc3nc(N4CCC[C@@H](NC(=O)Nc5nccs5)C4)c(F)cc3C(N)=O)cc2)CC1 [Example 385] | 20 | 3
6 | CN(C)CCc1ccc(Nc2nc(N3CCCC(F)(F)C3)c(F)cc2C(N)=O)cc1 [Example 475] | 100 | 20
7 | NC(=O)c1cc(F)c(N2CCC[C@@H](NC(=O)c3ccc(F)c(Cl)c3)C2)nc1Nc1ccc(F)cc1 [Example 456] | 10000 | 4300
8 | COc1cccc(Nc2nc(N3CCC[C@@H](NC(=O)Nc4nc(C)cs4)C3)ccc2C(N)=O)c1 [Example 331] |  | 780
9 | CC(C)(C)OC(=O)N1CCC(O)(c2ccc(Nc3nc(N4CCCCC4)c(F)cc3C(N)=O)cc2)C(C)(C)C1 (stereo not drawn) [Example 524] | 5700 | 1600
10 | CNC(=O)c1ccc(N2CCC[C@@H](NC(=O)c3ccc(C(C)(C)C)cc3)C2)nc1Nc1ccc(C(=O)N2CCOCC2)cc1 [Example 442] |  | 2600
11 | CN1CCC(c2ccc(Nc3nc(N4CCC[C@@H](NC(=O)c5ccc(F)cc5)C4)c(F)cc3C(N)=O)cc2)CC1 [Example 491] | 200 | 2
12 | CN1CCN(c2ccc(Nc3nc(N4CCC[C@@H](NC(=O)c5ccc(N(C)C)cc5)C4)c(F)cc3C(N)=O)cc2)CC1 [Example 414] | 230 | 2
13 | NC(=O)c1ccc(N2CCC[C@@H](N)C2)nc1Nc1ccccc1 [Example 299] |  | 1500
14 | NC(=O)c1ccc(-c2cccc3c2CCN(C(=O)c2ccccc2)C3)nc1Nc1ccc(-c2cnco2)cc1 [Example 346] | 10000 | 2900
15 | CN1CCN(c2ccc(Nc3nc(N4CCC[C@@H](NC(=O)c5ccccc5)C4)c(F)cc3C(N)=O)cc2)CC1 [Example 388] | 70 | 4
16 | CC(=O)c1ccccc1-c1ccc(C(N)=O)c(Nc2ccc(C(=O)N3CCOCC3)cc2)n1 [Example 132] |  | 1000
17 | CC(C)(C)NCCc1ccc(Nc2nc(N3CCC[C@@H](NC(=O)Nc4nccs4)C3)c(F)cc2C(N)=O)cc1 [Example 550] | 120 | 2
18 | NC(=O)c1cc(F)c(N2CCCCC2)nc1Nc1ccc(F)cc1 [Example 15, 5-Fluoro-2-(4-fluorophenylamino)-6-(piperidin-1-yl)nicotinamide] |  | 870
19 | CN1CCCC(c2ccc(Nc3nc(N4CCC[C@@H](NC(=O)Nc5nnc(C6CC6)s5)C4)c(F)cc3C(N)=O)cc2)C1 (stereo partly drawn) [Example 560] | 180 | 0.8
20 | NC(=O)c1ccc(N2CCC[C@@H](C(=O)O)C2)nc1Nc1ccc(C(=O)N2CCOCC2)cc1 [Example 165] |  | 2900
21 | CC(C)(C)c1ccc(NC(=O)[C@@H]2CCN(c3ccc(C(N)=O)c(Nc4ccc(C(=O)N5CCOCC5)cc4)n3)C2)cc1 [Example 163] |  | 1500
22 | CS(=O)(=O)Nc1cccc(Nc2nc(-c3ccc(Cl)cc3)ccc2C(N)=O)c1 [Example 375] |  | 1200
23 | Cc1ccc(NC(=O)c2ccc(C(C)(C)C)cc2)cc1-c1ccc(C(N)=O)c(Nc2ccc(C(=O)N3CCOCC3)cc2)n1 [Example 162] |  | 1400
24 | NC(=O)c1ccc(N2CC[C@@H](N)C2)nc1Nc1ccc(C(=O)N2CCOCC2)cc1 [Example 45] |  | 2100
25 | NC(=O)c1ccc(-c2ccc(Cl)c(C(F)(F)F)c2)nc1Nc1ccc(C(=O)N2CCOCC2)cc1 [Example 143] |  | 1200
26 | CN1CCC(C)(c2ccc(Nc3nc(N4CCC[C@@H](NC(=O)Nc5nccs5)C4)c(F)cc3C(N)=O)cc2)CC1 [Example 554] | 40 | 0.7
27 | CS(=O)(=O)c1ccc(Nc2nc(N3CCCC4(CC(c5ccccc5)=NO4)C3)ccc2C(N)=O)cc1 (stereo not drawn) [Example 29, 2-((4-(Methylsulfonyl)phenyl)amino)-6-(3-phenyl-1-oxa-2,7-diazaspiro[4.5]dec-2-en-7-yl)nicotinamide] | 160 | 1

Row | Structure (SMILES) | IC50 [1] [nM] | IC50 (human recombinant Btk) [nM]
28 | CN(C)CCc1ccc(Nc2nc(N3CCC[C@@H](NC(=O)Nc4nncs4)C3)c(F)cc2C(N)=O)cc1 [Example 462] | 250 | 2
29 | CNc1cccc(Nc2nc(-c3ccc(Cl)cc3)ccc2C(N)=O)c1 [Example 380] |  | 3200
30 | NC(=O)c1cc(F)c(N2CCC[C@@H](NC(=O)c3ccccc3)C2)nc1Nc1ccc(N2CCOCC2)cc1 [Example 422] | 120 | 20
31 | NC(=O)c1cc(F)c(C2CCCC(OC(=O)c3ccccc3)C2)nc1Nc1ccc(N2CCOCC2)cc1 (stereo not drawn) [Example 430] | 10000 | 740
32 | Cc1csc(NC(=O)N[C@@H]2CCCN(c3ccc(C(N)=O)c(Nc4ccc(N5CCOCC5)cc4)n3)C2)n1 [Example 337] |  | 760
33 | Cc1ccc(NC(=O)N[C@@H]2CCCN(c3ccc(C(N)=O)c(Nc4ccc(N5CCN(C)CC5)cc4)n3)C2)cc1C [Example 283] | 120 | 10
34 | CC(C)(C)OC(=O)N[C@@H]1CCN(c2ccc(C(N)=O)c(Nc3ccc(C(=O)N4CCOCC4)cc3)n2)C1 [Example 44] |  | 750
35 | CN(C(=O)Nc1ccccc1)c1cccc(Nc2nc(N3CCOCC3)c(F)cc2C(N)=O)c1 [Example 529] |  | 1000
36 | NC(=O)c1cc(F)c(N2CCC[C@@H](NC(=O)Nc3nccs3)C2)nc1Nc1ccc(CCN2CCC2)cc1 [Example 547] | 50 | 1
37 | CS(=O)(=O)c1ccc(Nc2nc(N3CCC[C@@H](NC(=O)c4ccccc4)C3)c(F)cc2C(N)=O)cc1 [Example 506] | 150 | 2
38 | CC(C)(C)c1ccc(NC(=O)[C@@H]2CCCN(c3ccc(C(N)=O)c(Nc4ccc(C(=O)N5CCOCC5)cc4)n3)C2)cc1 [Example 164] |  | 2700
39 | NC(=O)c1ccc(N2CC[C@@H](NC(=O)c3ccc(C(F)(F)F)cc3)C2)nc1Nc1ccc(C(=O)N2CCOCC2)cc1 [Example 50] |  | 740
40 | CC(C)(C)c1ccc(C(=O)Nc2cccc(-c3ccc(C(N)=O)c(Nc4ccc(C(=O)N5CCOCC5)cc4)n3)c2)cc1 [Example 37] |  | 1400
41 | CN(c1cccc(Nc2nc(N3CCOCC3)c(F)cc2C(N)=O)c1)S(=O)(=O)c1cccc2ccccc12 [Example 538] |  | 1200
42 | NC(=O)c1ccc(N2CCCCC2)nc1Nc1ccc(C(=O)Nc2ccccc2)cc1 [Example 323] |  | 780
43 | NC(=O)c1cc(F)c(N2CCOCC2)nc1Nc1cccc(N(S(=O)(=O)CCCCl)S(=O)(=O)CCCCl)c1 [Example 535] |  | 980
44 | NC(=O)c1ccc(NCc2ccccc2)nc1Nc1ccccc1 [Example 298] |  | 12000
45 | CC(C)(C)OC(=O)N[C@@H]1CCCN(c2ccc(C(N)=O)c(Nc3ccccc3)n2)C1 [Example 295] |  | 1700
46 | CN(c1cccc(Nc2nc(-c3ccc(Cl)cc3)ccc2C(N)=O)c1)S(=O)(=O)c1ccccc1 [Example 381] |  | 1000
47 | CC(C)(C)OC(=O)c1ccc(Nc2nc(N3CCCCC3)ccc2C(N)=O)cc1 [Example 314] |  | 1800
48 | CN1CCC(C)(c2ccc(Nc3nc(N4CCC[C@@H](NC(=O)Nc5nnc(C(C)(C)C)s5)C4)c(F)cc3C(N)=O)cc2)CC1 [Example 494] |  | 0.6
49 | NC(=O)c1ccc(N2CCNCC2)nc1Nc1ccc(C(=O)N2CCOCC2)cc1 [Example 10, 2-(4-(Morpholine-4-carbonyl)phenylamino)-6-(piperazin-1-yl)nicotinamide] |  | 1800
50 | CN(c1cccc(Nc2nc(N3CCOCC3)c(F)cc2C(N)=O)c1)S(=O)(=O)c1ccc(-c2ccccc2)cc1 [Example 537] |  | 1100
51 | COc1cc(Nc2nc(N3CCC[C@@H](NC(=O)c4ccccc4)C3)c(F)cc2C(N)=O)ccc1OCCNC1CC1 [Example 511] |  | 730
52 | CN(c1cccc(Nc2nc(-c3ccc(Cl)cc3)ccc2C(N)=O)c1)S(=O)(=O)Cc1ccccc1 [Example 376] |  | 6900
53 | N#Cc1ccc(Nc2nc(N3CCC[C@@H](N)C3)ccc2C(N)=O)cc1 [Example 302] |  | 880
54 | Cc1ccc(NC(=O)N[C@@H]2CCCN(c3ccc(C(N)=O)c(Nc4ccccc4)n3)C2)cc1C [Example 300] |  | 1300
